The values that follow come from PubChem BioAssay (NCI).

Assay in all cases: NCI anticancer screen, dose series, 48 h
The test system of assay [1] is HS 578T breast.
Assay [2] concerns HCT-15 colon.
Assay [3] has as its system DMS 114 small cell lung.
Assay [4] relates to SK-MEL-5 melanoma.
Assay [5] concerns HOP-18 NSCLC.
Assay [6] has as its system DU-145 prostate.
In assay [7] the test system is U251 CNS.
Assay [8] has as its system SNB-19 CNS.
Assay [9] concerns NCI-H522 lung.
Assay [10] deals with MALME-3M melanoma.

Several values for one entry are separate records, joined by “and”; a condition that tells them apart may be missing. Identical values can stand only once.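 Briefly, cells in 96-well plates were exposed to five compound concentrations for 48 h, and endpoints were estimated by linear interpolation. GI50 marks 50% less growth. At the TGI there is no net growth.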

Take `Nc1nc(F)nc2c1ncn2C1OC(COP(=O)(O)O)C(O)C1O` (centres undefined): the TGI in assay [1] was 379 µM; in [2] it was 1080 µM; in [3], 626 µM; in assay [4], 406 µM; in assay [5], 552 µM; in [6] it was 124 µM. In addition, the TGI is over 1250 µM in assay [7], 1000 µM in assay [8], 740 µM in assay [9] and 254 µM in [10].

`CC1=Cc2cc3[n-]c(cc4nc(cc5[n-]c(cc1n2)c(C)c5CCC(=O)O)C(CCC(=O)O)=C4C)cc3C.[Cu+2]`: the GI50 in assay [1] was 38.7 µM; in assay [2] it was > 1 µM and 52.7 µM; in [3], > 1 µM and 11.5 µM; in assay [4], > 1 µM and 14.5 µM; in assay [5] it was over 100 µM; in assay [6], 23.5 µM. For the same compound, the GI50 in [7] was > 1 µM and 9.85 µM; in [8], > 1 µM and 11.9 µM; in [9] it was 8.84 µM; in assay [10] it was > 1 µM and 7.39 µM. For the same compound, the TGI in assay [1] was over 100 µM; in [2], over 86.7 µM; in [3], over 44.9 µM; in assay [4], > 1 µM and 31.5 µM; in [5], over 100 µM; in assay [6], 85.1 µM. For the same compound, the TGI is > 1 µM and 23.2 µM in [7]; > 1 µM and 32.9 µM in [8]; 30.4 µM in assay [9]; > 1 µM and 18.6 µM in assay [10].

Regarding `COc1ccc(/C(Cl)=C(\C=O)c2cc(OC)c(OC)c(OC)c2)cc1OC`, the TGI in assay [1] is over 100 µM; in assay [2] it was over 100 µM; in assay [3] it was 85.9 µM; in [4], over 100 µM; in assay [5] it was 58.4 µM; in assay [6] it was over 100 µM. Also, the TGI in assay [7] was over 61.2 µM; in assay [8], over 100 µM; in assay [9] it was 48.8 µM; in assay [10], over 92.6 µM.

For `NC(=S)N/N=C1\C(=O)N(c2cccc([N+](=O)[O-])c2)C(=O)C1C(=O)Nc1cccc([N+](=O)[O-])c1` (centres undefined), the TGI in [2], in assay [3], in assay [4], in assay [5], in assay [7] and in assay [8] was over 100 µM throughout. The TGI in [9] and in assay [10] was over 100 µM each time.

For the compound `O=C1C(Br)=C(c2ccccc2)C(c2ccccc2)=C1c1ccccc1`, the TGI was found to be 40.5 µM in assay [1]; 4.03 µM in assay [2]; 5.03 µM in [3]; 9.35 µM in [4]; 14.9 µM in [5]; 25.9 µM in assay [6]. Further, the TGI worked out at 9.83 µM in assay [7], 24.2 µM in assay [8], 1.77 µM in assay [9] and 3.33 µM in [10].

`CCC[CH2][Sn]([CH2]CCC)([O]C(=O)c1cccc(F)c1F)[O][Sn]([CH2]CCC)([CH2]CCC)[O]C(=O)c1cccc(F)c1F`: the GI50 was 0.243 µM in assay [2]; 0.0627 µM in [3]; 0.52 µM in [4]; 0.551 µM in assay [5]; 0.457 µM in assay [6]; 0.147 µM in [7]. Also, the GI50 in [8] is 0.573 µM; in assay [9], 0.01 µM; in assay [10] it was 0.118 µM. The TGI amounted to 0.797 µM in assay [2]; 0.204 µM in assay [3]; 1.69 µM in assay [4]; 1.51 µM in [5]; 1.63 µM in [6]; 0.449 µM in assay [7]. Further, the TGI in assay [8] was 1.7 µM; in assay [9] it was 0.0697 µM; in assay [10], 0.284 µM.

For `CC(=O)Oc1cc2c(=O)oc3c(OC(C)=O)c(OC(C)=O)c(OC(C)=O)c4c(=O)oc(c1OC(C)=O)c2c34`, the TGI in [2] is over 100 µM; in assay [3], 58 µM; in assay [4] it was over 100 µM; in assay [5] it was over 100 µM; in assay [7], over 100 µM; in [8] it was over 100 µM. For the same compound, the TGI in assay [9] and in assay [10] was over 100 µM each time.
